Results on 1 compound are retold here after article PMC9495681, “Examining Topoisomers of a Snake-Venom-Derived Peptide for Improved Antimicrobial and Antitumoral Properties” (Biomedicines, 2022).

Structures are written as SMILES. Converted amounts (≈) assume the structure as drawn. Peptide text beside a SMILES is read from it.

Holding throughout (type): cell-based
Data set [1] has as its system A. baumannii (ATCC 15308). Kind of data set: Minimal inhibitory concentration (MIC), broth microdilution. The conditions noted are these: Mueller Hinton Broth, 5 × 10^5 CFU/mL, 0.04% BSA and 0.002% acetic acid, 20–22 h at 37 °C, duplicate. The procedure: (§1) Assays were performed on three Gram-negative bacteria: E. coli (BW25113, Coli Genetic Stock Center), A. baumannii (ATCC 15308, CECT, Valencia, Spain), and Pseudomonas sp. (ATCC15915, CECT). The minimal inhibitory concentration (MIC) of each peptide was determined as described by Wiegand et al.. Peptide stocks in water were added to polypropylene 96-well plates (Greiner, Frickenhausen, Germany) and serially diluted from 100 to 0.2 μM. Fresh bacteria were incubated at 37 °C in Mueller Hinton Broth (MHB, Condalab, Torrejón de Ardoz, Spain) up to exponential growth and diluted to a final inoculum of 5 × 10^5 CFU/mL. BSA and acetic acid at 0.04% (w/v) and 0.002% (v/v) final concentration, respectively, were added to avoid peptide self-aggregation. Plates were incubated for 20–22 h at 37 °C. Each peptide was tested in duplicate. MIC values were the lowest peptide concentration where bacterial growth was not detected.

For another data set, the system named is E. coli (BW25113). Described as above. The note with it: Mueller Hinton Broth, 5 × 10^5 CFU/mL, 0.04% BSA and 0.002% acetic acid, 20–22 h at 37 °C, duplicate. As for the experimental part:
as §1

For data set [2], the system named is Pseudomonas sp. (ATCC15915). The description is as above. The conditions noted are these: Mueller Hinton Broth, 5 × 10^5 CFU/mL, 0.04% BSA and 0.002% acetic acid, 20–22 h at 37 °C, duplicate. As for the experimental part:
as §1

A further data set has as its system 1BR3G human fibroblasts. The data set is described as follows: Peptide cytotoxicity (Cell Titer Blue viability). The conditions noted are these: 24 h treatment, medium with 2% FBS, Cell Titer Blue fluorescence, triplicate. The source says:
Human HeLa S3 (cervix epithelial carcinoma), leukemia Jurkat E6.1 (T-cell lineage), U937 (histiocytic lymphoma), THP-1 (acute monocytic leukemia), and 1BR3G human fibroblasts were obtained from the Cell Lines Repository of the Institut Municipal d’Investigació Medica (Barcelona, Spain). BxPC3 (pancreas adenocarcinoma), A549 (lung carcinoma), SH-Sy5Y (neuroblastoma), Panc1 (epithelioid carcinoma), 786-O (renal cell adenocarcinoma), and HT29 (colorectal adenocarcinoma) were obtained from the Integrative Biomedical Materials and Nanomedicine lab at UPF (Barcelona, Spain). HeLa S3, Jurkat E6.1, U937, THP-1, Panc1, and 786-O were cultured in Roswell Park Memorial Institute medium (RPMI) supplemented with 10% fetal bovine serum (FBS) and 1% penicillin/streptomycin solution and maintained at 37 °C in a humidified atmosphere with 5% of CO2. 1BR3G, BxPC3, A549, and HT29 were cultured in Dulbecco’s Modified Eagle’s Medium (DMEM) supplemented with 10% FBS and 1% penicillin/streptomycin solution and maintained at 37 °C in a humidified atmosphere with 5% of CO2. SH-Sy5Y was cultured in DMEM supplemented with 15% FBS and 1% penicillin/streptomycin and maintained at 37 °C in a humidified atmosphere with 5% of CO2. Cultures were maintained at 10^5–10^6 cell/mL densities. For 1BR3G human fibroblasts, BxPC3, A549, SH-Sy5Y, Panc1, 786-O, and HT29 were split every time they reached 80–90% of confluence after harvesting with PBS and trypsin.
About 60,000 cells were added to different microfuge tubes containing 2-fold serial dilution of the peptide, with a final concentration in the range between 0.1–100 μM in RPMI containing 2% of FBS. After 30 min incubation at 37 °C and 5% of CO2, […] of medium containing approximately 10,000 treated cells were transferred to a 96-well plate. Then, 15 μL of Cell Titer Blue dye (Promega, Madison, WI, USA) was added, and plates were reincubated for 24 h. Fluorescence was read at 4 and 24 h after dye addition in a Synergy HTX (BioTek, Winooski, VT, USA) reader, with λexc = 560 nm and λem = 620 nm. In the case of adherent cultures, 5000 cells/well were seeded in 96-well plates. After 24 h incubation at 37 °C and 5% of CO2, the medium was removed, and a new medium with 2% of FBS containing the various 2-fold dilution of the peptides was added. After a further 30 min, 15 μL of Cell Titer Blue dye was added to each well, and the measurement was done as above. Relative viability was calculated relative to a cell with only 2% FBS in the corresponding medium as a control (100% viability). All assays were conducted in triplicate.
A general note: Resazurin is reduced to fluorescent resorufin, in cell work by metabolically active cells.

The subject of another data set is human erythrocytes. The data set is described as follows: Hemolytic activity. The note with it: up to 100 μM; 4% (v/v) human erythrocytes in PBS, 30 min at 37 °C, OD 540 nm, triplicate. The procedure: Fresh human blood (10 mL) was collected in EDTA tubes and centrifuged at 1000× g for 10 min at 4 °C. After plasma removal, the pellet containing the erythrocytes was washed 3× with phosphate-buffered saline (PBS) and resuspended to an 8% (v/v) suspension in PBS. Then, 100 μL of the suspension was added to a final concentration of 4% (v/v) to microfuge tubs containing 2-fold serially diluted peptides (0.2–100 μM). The suspension was incubated for 30 min at 37 °C with agitation, then centrifuged for 2 min at 1000× g. The supernatant was transferred to 96-well plates, and hemoglobin was measured by OD at 540 nm in a Synergy HTX plate reader (BioTek). Positive and negative controls were 1% (v/v) Triton X-100 and untreated erythrocytes (4% v/v in PBS), respectively. Measurements were done in triplicate. Hemolysis was calculated as:(2) % Hemolysis=[OD540peptide]−[OD540PBS]/[OD540Triton]−[OD540PBS]·100

In the case of `CC[C@H](C)[C@H](NC(=O)[C@H](CCCCN)NC(=O)[C@H](CCCCN)NC(=O)[C@H](CC(C)C)NC(=O)[C@H](CCCNC(=N)N)NC(=O)[C@H](CCCCN)NC(=O)[C@@H](N)CCCCN)C(=O)N[C@@H](Cc1ccccc1)C(=O)N[C@@H](CCCCN)C(=O)N[C@@H](CCCCN)C(=O)N1CCC[C@H]1C(=O)N[C@@H](CCSC)C(=O)N[C@H](C(=O)N[C@H](C(=O)NCC(=O)N[C@H](C(=O)N[C@H](C(=O)N[C@H](C(=O)N1CCC[C@H]1C(=O)N[C@@H](Cc1ccccc1)C(N)=O)[C@@H](C)CC)[C@@H](C)O)C(C)C)[C@@H](C)CC)C(C)C` [Ctn[15-34]] (H-KKRLKKIFKKPMVIGVTIPF-NH2), the “MIC A. baumannii” value in data set [1] came to 0.78 µM (≈ 1.85 µg/mL). Moreover, the “MIC E. coli” value with E. coli (BW25113) is less than 0.005 µM. Also, the “MIC Pseudomonas sp.” value in data set [2] was less than 0.05 µM. Further, the “IC50 (cell viability) human fibroblast 1BR3G” value in the data set with 1BR3G human fibroblasts is “≈ 14.32 μM”. Further, the “Hemolytic effect (in words)” value with human erythrocytes is “totally nonhemolytic”.
